# Results reported in US9718825B2, “N-(4-(azaindazol-6-yl)-phenyl)-sulfonamides and their use as pharmaceuticals” (priority 2013, dated 2017).
# pIC50: −log10 of the molar value. Where two headings read alike, the source gives them in different places.
# Assays:
# [1] = test system: collagen type X (Col10a1) expression in mouse chondrogenic ATDC5 cells; assay: Chondrocyte hypertrophic differentiation in mouse chondrogenic ATDC5 cells (collagen type X expression); type: cell-based; conditions: Col10a1 expression by quantitative real-time PCR after two weeks of cell culture, read-out: IC50 values for the inhibition of collagen type X expression in mouse chondrogenic ATDC5 cells
# Source text: D) Determination of the effect on chondrocyte hypertrophic differentiation in mouse chondrogenic ATDC5 cells
# The ATDC5 cell assay was used as in vitro model to determine the effects of the compounds of the invention on chondrocyte hypertrophic differentiation by monitoring the expression levels of collagen type X (Col10a1) as specific marker of chondrocyte hypertrophy.
# Background: ATDC5 cells are a clonal mouse embryonic cell line derived from multipotent AT805 teratocarcinoma cells (Atsumi, T. et al., A chondrogenic cell line derived from a differentiating culture of AT805 teratocarcinoma cells, Cell Differ. Dev. 1990, 30, 109-116). The cells can undergo insulin-dependent chondrogenic cell differentiation entailing distinct differentiation stages starting from an undifferentiated, subconfluent stage, a condensation stage, a cartilage nodule formation stage and a calcification stage within 45 days of in vitro culture. Chondrogenic differentiation can be shown by measuring the expression of the cartilage main collagen (Col2a1) and aggrecan (AGC1) and glycosaminoglycan-staining with Alcian Blue within two weeks after insulin-triggered differentiation, and hypertrophic differentiation can be monitored by the expression of collagen type X (Col10a1), a specific marker of chondrocyte hypertrophy within 21 days of in vitro culture. (Shukunami, C. et al., Chondrogenic Differentiation of Clonal Mouse Embryonic Cell Lne ATDC5 In Vitro: Differentiation-dependent Gene Expression of Parathyroid Hormone (PTH)/PTH-related Peptide Receptor, J. Cell Biol. 1996, 133, 457-468). Growth factor BMP-2 is known to stimulate cell differentiation and can stimulate early and late-phase ATDC5 differentiation (Shukunami, C. et al., Sequential Progression of the Differentiation Program by Bone Morphogenetic Protein-2 in Chondrogenic Cell Line ATDC5, Exp. Cell Res. 1998, 241, 1-11). Thyroid hormone triiodothyronine (T3) promotes hypertrophic differentiation of growth plate chondrocytes (Robson, H. et al., Thyroid Hormone Acts Directly on Growth Plate Chondrocytes to Promote Hypertrophic Differentiation and Inhibit Clonal Expansion and Cell Proliferation, Endocrinology 2000, 141, 3887-3897). Addition of BMP2 and T3 can accelerate ATDC5 hypertrophic differentiation leading to the strong induction Col10a1 expression between 10-14 days. SGK-inhibitors were added to differentiating ATDC5 cells for 14 days and Col10a1 gene expression was quantified to determine effects on chondrocyte hypertrophic differentiation.
# Cell assay description: ATDC5 cells were maintained in 300 cm^2 tissue culture flasks in DMEM/Ham's F12+5% FCS supplemented with 10 μg/ml human transferrin, 30 nM sodium selenite, 50 μg/ml kanamycin and grown at 37° C. in 5% CO2 in 95% air. To initiate cell differentiation, 9.9×10^4 cells were plated in 24 well plates and grown for 2 days. Medium was exchanged with DMEM/Ham's F12+5% FCS supplemented with 10 μg/ml human transferrin, 30 nM sodium selenite, 50 μg/ml ascorbic acid and 1 μg/ml BMP2. The assay was run in triplicates, compounds were added in […], and medium changed every 2-3 days including supplementation of compound. At day 7 after initiation of cell differentiation, 1 μM T3 was used as additional supplement in the cell culture.
# After two weeks of cell culture, RNA was isolated and converted to cDNA for determination of gene expression by quantitative real-time PCR. Cells were lysed in 600 μl of RLT-buffer (Qiagen) and total RNA was isolated using the RNA-easy Mini RNA isolation Kit (Qiagen) which was run on a Qiacube system (Qiagen) according to the supplier's instructions. RNA was isolated in 30 μl of pure water and the RNA content measured by UV-spectroscopy (Nanodrop, Peqlab). For cDNA synthesis 50 ng total RNA was reverse transcribed using the High Capacity cDNA Reverse Transcription Kit (Applied Biosystems, Product Number 4368813) according to the manufacturer's instructions. […]
# [2] = test system: SGK-1 dependent activation of ENaC-currents in A6 cell monolayers; assay: Functional electrophysiological assay (Ussing chamber): SGK-1 dependent activation of ENaC-currents in A6 cell monolayers; type: cell-based, Xenopus laevis; conditions: hypoosmotic shock 45 min, amiloride-sensitive ΔI'sc, read-out: IC50 values for inhibition of SGK-1 dependent activation of ENaC-currents in A6 cell monolayers
# Description: C) Functional Electrophysiological Assay for Determination of SGK-1 Dependent Activation of ENaC-Currents in A6 Cell Monolayers
# Cells were grown in cell culture flasks (Nunc) at 28° C. in a humidified atmosphere with 4% CO2. The culture medium contained a 7:3 mixture of Leibovitz's L-15 (Sigma-Aldrich)/Coon's (Sigma-Aldrich) media supplemented with 10% fetal bovine serum (PAA), 20% sterile water, 25 mM NaHCO3 (Sigma-Aldrich), 100 U/ml penicillin (PAA) and 100 μg/ml streptomycin (PAA). The osmolality of the medium was 270 mOsml/kg H2O). Cells were detached with accutase (PAA) and seeded for electrophysiological measurements into transwell filter inserts (polyester 0.4 μm pore size, Corning) at a density of 0.4×10^6 cells/filter. Cells were cultivated for 7-10 days, and confluent A6 cell monolayers were identified by repetitive resistance measurements in cell culture medium using an EVOM^2 ohmmeter (World Precision Instruments). Monolayers with a resistance of >10 kOhm were considered confluent. Filters with confluent A6 cells were transferred into a continuously perfused Ussing-chamber, and electrophysiological parameters were measured under open circuit conditions using a transepithelial clamp amplifier (EP Design). Short circuit current (I′sc) was calculated by Ohm's law. […] The pH was adjusted to 8.2. All measurements were done at room temperature.
# To evaluate the effects of SGK inhibitors on ENaC-mediated transepithelial currents, A6 monolayers were first equilibrated for 5 min with isoosmotic Ringer solution from both the luminal and basolateral side of the cell layer. Amiloride was applied to the luminal site to establish the basal ENaC-dependent current (I′scbasal). Cell layers were then perfused from the basolateral side for 10 min with compounds in isotonic buffer or control isotonic buffer. SGK signaling leading to increased ENaC activity and subsequent increase in I′sc was stimulated by application of hypoosmotic Ringer-solution for 45 min to both sides of the A6 cell layer. ENaC-dependent I′sc after the hypoosmotic shock (I′schypo) was determined by application of amiloride at the end of the experiment. Total changes of amiloride-sensitive Isc was calculated as ΔI′sc=I′schypo−I′scbasal. […] The inhibition of ΔI′sc by the test compounds was determined relative to the ΔI′sc measured with control monolayers which were not treated with the test compound.
# [3] = target: recombinant human SGK-1 enzyme (Homo sapiens, UniProt O00141); assay: Enzymatic activity assay: SGK-1 substrate peptide phosphorylation (Caliper lab-chip mobility shift); type: biochemical
# [4] = test system: SGK-1 dependent phosphorylation of GSK3beta in U2OS cells; assay: SGK-1 dependent phosphorylation of GSK3beta in U2OS cells overexpressing recombinant SGK-1 and GSK3beta; type: cell-based, human; conditions: read-out: IC50 values for inhibition of SGK-1 dependent phosphorylation of GSK3beta in U2OS cells
# [5] = target: recombinant human SGK-1 enzyme; assay: Enzymatic activity assay: SGK-1 substrate peptide phosphorylation (Caliper lab-chip mobility shift); type: biochemical; conditions: peptide substrate 1 μM, ATP 10 μM, 60 min at 37° C., read-out: IC50 values for inhibition of SGK-1 enzymatic activity
# [6] = Mus musculus, Chondrocyte, 336 h
# [7] = read-out: IC50 values for inhibition of SGK-1 enzymatic activity, peptide substrate 1 μM, ATP 10 μM, 60 min at 37° C.
# [8] = Homo sapiens, U2OS cells, 6 h incubation, ratio of phosphorylated GSK3beta to total GSK3beta
# [9] = peptide substrate 1 μM, ATP 10 μM, 60 min at 37° C., read-out: IC50 values for inhibition of SGK-1 enzymatic activity
# [10] = U2OS cells, 6 h incubation, ratio of phosphorylated GSK3beta to total GSK3beta
# Chain of recombinant human SGK-1 enzyme (Homo sapiens, UniProt O00141) (O00141 whole entry, looked up): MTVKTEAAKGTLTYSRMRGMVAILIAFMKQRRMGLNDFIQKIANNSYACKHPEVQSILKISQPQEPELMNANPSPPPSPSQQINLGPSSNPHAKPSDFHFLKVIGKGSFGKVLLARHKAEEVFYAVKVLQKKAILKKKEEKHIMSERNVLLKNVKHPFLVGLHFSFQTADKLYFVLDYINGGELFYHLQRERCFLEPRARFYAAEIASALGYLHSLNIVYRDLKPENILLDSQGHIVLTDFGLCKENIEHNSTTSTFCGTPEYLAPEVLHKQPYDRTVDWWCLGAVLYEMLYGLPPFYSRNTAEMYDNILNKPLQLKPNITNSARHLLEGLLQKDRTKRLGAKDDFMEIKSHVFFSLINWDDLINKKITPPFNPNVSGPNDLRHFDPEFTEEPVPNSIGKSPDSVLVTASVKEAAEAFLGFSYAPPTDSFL
Structure (SMILES),pIC50 [1],pIC50 [2],"pIC50 [3, 9]","pIC50 [4, 10]",other results
"O=S(=O)(Nc1ccc(-c2nc(OC3CCC(O)CC3)c3cn[nH]c3n2)cc1)c1cc(Cl)ccc1F (stereo not drawn) [Example 3, 5-Chloro-2-fluoro-N-{4-[4-(4-hydroxy-cyclohexyloxy)-1H-pyrazolo[3,4-d]pyrimidin-6-yl]-phenyl}-benzenesulfonamide]",,,,,"pIC50 [1, 6]: 7.28; pIC50 ([2]; Xenopus laevis, INA-6, 0.75 h): 5.47"
"Cc1ccc(C#N)c(S(=O)(=O)Nc2ccc(-c3nc(OC4CCC(O)CC4)c4cn[nH]c4n3)cc2)c1 (stereo not drawn) [Example 4, 2-Cyano-N-{4-[4-(4-hydroxy-cyclohexyloxy)-1H-pyrazolo[3,4-d]pyrimidin-6-yl]-phenyl}-5-methyl-benzenesulfonamide]",,,,,"pIC50 [1, 6]: 8.05; pIC50 ([2]; Xenopus laevis, INA-6, 0.75 h): 5.49; pIC50 [3, 7]: > 8.82; pIC50 [4, 8]: 6.96"
O=S(=O)(Nc1ccc(-c2nc(OC3CCC(O)CC3)c3cn[nH]c3n2)cc1)c1cc(Cl)ccc1Cl (stereo not drawn) [Example 61],7.44,5.85,> 8.92,6.37,
N#Cc1ccc(Cl)cc1S(=O)(=O)Nc1ccc(-c2nc(OC3CCC(O)CC3)c3cn[nH]c3n2)cc1 (stereo not drawn) [Example 83],6.89,5.72,8.70,5.68,
Cc1n[nH]c2nc(-c3ccc(NS(=O)(=O)c4cc(Cl)ccc4F)cc3)nc(OC3CCN(C(C)C)CC3)c12 [Example 346],7.18,5.70,8.49,,
Cc1n[nH]c2nc(-c3ccc(NS(=O)(=O)c4cc(F)ccc4F)cc3)nc(OC3CCN(C(C)C)CC3)c12 [Example 349],6.42,5.49,8.08,,
"N#Cc1ccc(Cl)cc1S(=O)(=O)Nc1ccc(-c2ncc3c(N)n[nH]c3n2)cc1 [Example 446, N-[4-(3-Amino-1H-pyrazolo[3,4-d]pyrimidin-6-yl)-phenyl]-5-chloro-2-cyano-benzenesulfonamide]",,,,,"pIC50 [1, 6]: 6.26; pIC50 ([2]; Xenopus laevis, INA-6, 0.75 h): 6.72; pIC50 [4, 8]: 5.43"
"Cc1nc(-c2ccc(NS(=O)(=O)c3cc(Cl)c(F)cc3F)cc2)nc2[nH]nc(N)c12 [Example 447, N-[4-(3-Amino-4-methyl-1H-pyrazolo[3,4-d]pyrimidin-6-yl)-phenyl]-5-chloro-2,4-difluoro-benzenesulfonamide]",,,,,"pIC50 [1, 6]: 6.48; pIC50 ([2]; Xenopus laevis, INA-6, 0.75 h): 7.22; pIC50 [3, 7]: > 8.82; pIC50 [4, 8]: 6.47"
COc1ccc(Cl)c(S(=O)(=O)Nc2ccc(-c3nc(C)c4c(N)n[nH]c4n3)cc2)c1 [Example 467],7.28,6.80,> 8.82,6.82,
Cc1ccc(C#N)c(S(=O)(=O)Nc2ccc(-c3nc(C)c4c(N)n[nH]c4n3)cc2)c1 [Example 468],6.06,6.21,> 8.82,6.64,
Cc1nc(-c2ccc(NS(=O)(=O)c3cc(Cl)ccc3C#N)cc2)nc2[nH]ncc12 [Example 492],6.18,5.96,8.42,5.38,
Nc1n[nH]c2nc(-c3ccc(NS(=O)(=O)c4cc(F)ccc4F)cc3)ncc12 [Example 519],6.59,5.96,6.72,6.59,
COc1ccc(C#N)c(S(=O)(=O)Nc2ccc(-c3nc(C4CC4)c4c(N)n[nH]c4n3)cc2)c1 [Example 520],7.52,6.30,> 8.82,7.21,
"Nc1n[nH]c2cc(-c3ccc(NS(=O)(=O)c4cc(Cl)c(F)cc4F)cc3)nc(O)c12 [Example 549, N-[4-(3-Amino-4-hydroxy-1H-pyrazolo[4,3-c]pyridin-6-yl)phenyl]-5-chloro-2,4-difluoro-benzenesulfonamide]",,,,,pIC50 [5]: 8.11
Nc1n[nH]c2cc(-c3ccc(NS(=O)(=O)c4cc(Cl)ccc4Cl)cc3)ncc12 [Example 556],,5.70,8.77,5.77,
"Cc1ccc(C#N)c(S(=O)(=O)Nc2ccc(-c3cc4[nH]nc(C)c4cn3)cc2)c1 [Example 561, 2-Cyano-5-methyl-N-[4-(3-methyl-1H-pyrazolo[4,3-c]pyridin-6-yl)phenyl]benzenesulfonamide]",,,,,"pIC50 [5]: 8.11; pIC50 ([4]; Homo sapiens, U2OS, 6 h): 5.57"
"O=S(=O)(Nc1ccc(-c2cc3[nH]ncc3cn2)cc1)c1cc(Cl)ccc1Cl [Example 563, 2,5-Dichloro-N-[4-(1H-pyrazolo[4,3-c]pyridin-6-yl)phenyl]benzenesulfonamide]",,,,,pIC50 [5]: 7.28
